Measurements reported in patent US20140141069A1, “BETA-GUANIDINOPROPIONIC ACID FOR THE TREATMENT OF HYPERTENSION” (priority 2011, published 2014).
Read-outs that look alike come from different tables or passages of the source.

Key:
[1] = tested on: ADP-dependent platelet aggregation; test: Blood CK titration at 1 μmol/L ADP, platelet aggregation (pilot experiment); format: cell-based
creatine kinase [2] = conditions: equimolar quantities of DNFB, cited from earlier work
SHR mesenteric arteries = test: Vasodilation/contractility of SHR mesenteric arteries in vitro in a wire myograph with the CK-inhibitor DNFB; design: species or system rat; conditions: p<0.01
rats = conditions: 1% in rat chow, up to 8 weeks of feeding; cited from earlier work
[3] = cited from earlier work
[4] = tested on: Spontaneous Hypertension (SH) rats; test: Blood pressure of non-obese SH rats on creatine-free diet with 0.1% β-guanidinopropionic acid; format: in vivo, rat; conditions: feed contained 0.1% β-guanidinopropionic acid
Description: The effects of β-guanidinopropionic acid can not be explained by, for example, a reduction in weight.

SH rats = test: Tail cuff blood pressure in SH adult rats given 3% β-GPA (Example 4); format: in vivo, rat; conditions: 3% β-GPA in feed, tailcuff method
Method: A total of 24 SH adult rats are divided into 4 groups: the test group is given 3% β-GPA , a second group is given 3% creatine, a third group is given 3% creatine +3% β-GPA; and a control group receives only normal feed. SH rats are usually also associated with high creatine kinase levels, although it is unknown whether this is cause or result of the spontaneous high blood pressure. […] Blood pressure was measured at the tail using standard methods (tailcuff method). In the control group, the blood pressure rises. An absence in the rise of blood pressure or even a reduction in the blood pressure in the test group indicates the blood pressure lowering effect of β-GPA. In order to exclude a possible effect of creatine deficiency or a possible effect of creatine itself on the blood pressure level, the two additional control groups (3% creatine or 3% creatine +3% β-GPA).

[5] = tested on: myocardial phosphocreatine and creatine; conditions: high doses; cited from earlier work
[6] = Certified toxicological testing of marketed β-guanidinopropionic acid; conditions: preliminary tests of product marketed for human use
creatine kinase [7] = conditions: creatine kinase reaction; cited from earlier work
SHR = test: Tail cuff blood pressure in SHR on a diet with β-GPA versus standard diet (Example 5); format: in vivo, rat
Method: Male, non-obese, normoglycaemic, 16-weeks-old SHR without lipid abnormalities were randomly assigned to a diet with β-GPA versus a standard diet without β-GPA (N=8 per group). Blood pressure was measured weekly with the tail cuff method. All blood pressure measurements were performed unblinded under equal conditions. Body temperature was kept constant during the measurements at 36-38° C. […] Data are expressed as mean (SEM).

SMILES: CN(CC(=O)O)C(=N)NP(=O)(O)O [CrP, phosphocreatine]
- Inhibition of ADP-dependent platelet aggregation with increasing CK [1]: greater inhibition of ADP-dependent platelet aggregation

SMILES: O=[N+]([O-])c1ccc(F)c([N+](=O)[O-])c1 [DNFB, dinitrofluorobenzene]
- Mean inhibition of contraction (creatine kinase [2]; blacks): 0.32
- Mean inhibition of contraction (creatine kinase [2]; whites): 0.90

SMILES: NC(N)=NCCC(=O)O [β-GPA, 3-(diaminomethylideneamino)propanoic acid]
- Residual contractility after the CK inhibitor DNFB, versus controls (SHR mesenteric arteries; mesenteric arteries of rats treated with β-GPA compared to controls, DNFB, mean (SEM)): −41.3 (13.0) %
- Vasodilation of mesenteric arteries compared to controls (SHR mesenteric arteries; rats treated with β-GPA before sacrifice, in vitro incubation with dinitrofluorobenzene, N=5 to 6 per group): significantly increased
- Cardiac function or sprint capacity in vivo (rats): does not lead to reduced cardiac function or overtly reduced sprint capacity
- Solubility in water [3]: up to 50 mg/ml
- Blood pressure rise characteristic for SH rats [4]: did not show blood pressure rise
- Blood pressure level versus control SH rats (SH rats): lower than that of the control SH rats
- Reduction of myocardial phosphocreatine and creatine concentrations [5]: up to 80%
- Certified toxicological testing [6]: passed certified toxicological testing
- in vitro Vmax relative to the Vmax values of creatine and phosphocreatine (creatine kinase [7]): < 1%
- Weight changes (SHR; diet with β-GPA): no significant weight changes
- Systolic pressure reduction (SHR; diet with β-GPA vs controls, 4 weeks, tail cuff, mean (SEM), N=8 per group, p<0.001): −42.7 (5.5) mm Hg
- Diastolic pressure reduction (SHR; diet with β-GPA vs controls, tail cuff, mean (SEM), p<0.001): −35.3 (4.8) mm Hg
